The data set is described as follows: Human HepG2 cell viability assay in 384 well format. The data set is classed as toxicity, cell-based. On the set-up: dose 125 nL, time 70.5 hour; concentration not given beside the values. To be noted: HepG2 cells, read-out: Inhibition.

Turning to `Cn1ncc2c1NC(=O)CC2c1cc2c(cc1Cl)OCO2` (configuration not stated), the cytotoxicity at 70.5 h amounted to 17.7%.
For the compound `Cc1nc(CN2CCC3(CCCO3)CCC2=O)no1` (configuration not stated), the cytotoxicity at 70.5 h is -3.41%.
As for `CN(CCc1cn[nH]c1)Cc1nc(Cc2cccc(C(F)(F)F)c2)no1`, the figure is 3.03%.
In the case of `Cc1ccc(Oc2ncccc2CNC2CCOCC2)cn1`, the cytotoxicity at 70.5 h is -7.51%.
Turning to `C[C@@H]1CN(c2ccc(Cl)cn2)C[C@@]1(O)C1CC1`, the cytotoxicity at 70.5 h was -3.66%.
On to `Cc1n[nH]c(C)c1CCC(=O)NCC1CCOc2ccccc2C1` (configuration not stated), for which the cytotoxicity at 70.5 h is 12.2%.
Take `O=C(NCC1COCCO1)c1csc(Cc2ccccc2)n1` (configuration not stated): the cytotoxicity at 70.5 h is -4.7%.
For the compound `Cn1ncc2c(NC3CCCN(C(=O)C4CC4)C3)nc(C(C)(C)C)nc21` (configuration not stated), the cytotoxicity at 70.5 h is 2.96%.
For the compound `Cc1ccc(C(=O)N(Cc2cccnc2)C[C@@H]2CCC(=O)N2)s1`, the cytotoxicity at 70.5 h stood at 28%.
As for `CO[C@H]1[C@@H]2CC[C@H]1CN(c1nc(C)nc3sccc13)C2`, the figure is 6.45%; as for `COc1cccc2c1OCC(C(=O)N1Cc3ccccc3C1)C2` (configuration not stated), -1.1%; as for `CCCc1cc(CN(C)C2CSCCSC2)n[nH]1`, -6.5%.
As for `CN(C)C(=O)CCN1CC(c2ccccc2)(c2ccccc2)CCC1=O`, the cytotoxicity at 70.5 h worked out at 4.06%.
In the case of `COCc1noc(-c2ccc(N(C)Cc3nccs3)nc2)n1`, the cytotoxicity at 70.5 h is -6.18%.
For `O=C1CC2(CCN(C(=O)c3cccc(Cl)c3)CC2)CN1`, the cytotoxicity at 70.5 h was -7.17%.
Take `CCC(=O)N1CCN(S(=O)(=O)c2cccc(F)c2)[C@H]2CS(=O)(=O)C[C@H]21`: the cytotoxicity at 70.5 h is -13.7%.
Consider `Cc1cccc(C2CCCN(C(=O)CN3CCOC3=O)C2)c1` (configuration not stated), for which the cytotoxicity at 70.5 h is -17.6%.
Turning to `CNc1ccnc(N(C)Cc2cc(-c3cccs3)n[nH]2)n1`, the cytotoxicity at 70.5 h was determined as 32.5%.
For the compound `CC1=CC[C@@H]2CN(C(=O)c3ccc(-c4cc[nH]n4)cc3)C[C@@H]2C1`, the cytotoxicity at 70.5 h stood at 0.519%.
On to `CCCn1ccnc1CN1CC[C@@H](NC(=O)c2cccnc2)[C@H](O)C1`, for which the cytotoxicity at 70.5 h was -16.3%.
As for `COc1ccc(C(O)C(=O)N2CCC(c3nccn3C(C)C)CC2)cc1` (configuration not stated), the cytotoxicity at 70.5 h is 28.1%.
Regarding `CCN(Cc1ccccc1)C(=O)CCN1CC(O)C1`, the cytotoxicity at 70.5 h is -16.3%.
Take `CNCc1cn(CC2CCN(Cc3cccs3)CC2)nn1`: the cytotoxicity at 70.5 h is 22.5%.
As to `CN1CCC(N(C)CCC(=O)N2CCC(OCc3ccccc3)CC2)C1` (configuration not stated), the cytotoxicity at 70.5 h came out at 29.2%.
On to `CCOCC(=O)N1CCC(c2nc(-c3cccnn3)no2)CC1`, for which the cytotoxicity at 70.5 h is -11.6%.
To `Cc1nc(CN(C)CC2CCCN(CCc3ccc(Cl)cc3)C2)no1` (configuration not stated) belongs 0.0181%; to `CC(C)n1cc(CN(C)C[C@@H]2CCCN3CCCC[C@H]23)cn1`, -6.94%; to `COCCN1C(=O)[C@H]2CC[C@@H]1CN(C(=O)COc1ccc(F)c(Cl)c1)C2`, -9.65%.
Consider `CCCc1cc(NCc2nc(COC)no2)n2nccc2n1`, for which the cytotoxicity at 70.5 h is -0.144%.
To `CCC(CO)N(Cc1ccsc1)Cc1cccc(O)c1` (configuration not stated) belongs -0.682%.
As to `NC(=O)CCC1CCCN(Cc2cnc(N3CCCCC3)nc2)C1` (configuration not stated), the cytotoxicity at 70.5 h was -3.37%.
`CC(CO)Nc1ccc(-c2nc(Cc3ccc(F)cc3)no2)cn1` (configuration not stated): the cytotoxicity at 70.5 h is -2.07%.
Turning to `Cc1cc(CC(=O)N2CCN(C)[C@@H]3CS(=O)(=O)C[C@@H]32)ccc1F`, the cytotoxicity at 70.5 h is -4.31%.
For the compound `Cc1cc(C)n(CCCN(C)Cc2cn[nH]c2-c2ccc(F)cc2)n1`, the cytotoxicity at 70.5 h is -9.49%.
Turning to `COc1ccc(C(=O)NCc2cccnc2N2CCOCC2)o1`, the cytotoxicity at 70.5 h is -0.423%.
As for `O=C(O)c1cc2n(n1)CCCN(C(=O)CCc1c[nH]c3ccccc13)C2`, the figure is -16.4%; as for `CC(=O)c1cc(CN2CCCC23CCN(c2ccccn2)CC3)cs1`, -19.2%.
`Cc1cc(C2CCC2)nc(NCC(C)(C)N2CCCC2)n1`: the cytotoxicity at 70.5 h was -16.9%.
As to `COc1cccc2c1OCC(CNC(=O)Cn1ccnc1C)C2` (configuration not stated), the cytotoxicity at 70.5 h is -0.227%.
Regarding `C/C=C(\C)CN1C[C@H](NC(=O)c2cc[nH]c2C)[C@@H](C2CC2)C1`, the cytotoxicity at 70.5 h came out at 10.6%.
Consider `CC(C)n1cc(CN(Cc2ccsc2)CC2CCCO2)cn1` (configuration not stated), for which the cytotoxicity at 70.5 h was -1.43%.
`Cc1nc(O)cc(CN2C[C@H](NS(=O)(=O)N(C)C)[C@@H](C3CC3)C2)n1`: the cytotoxicity at 70.5 h was -3.51%.
To `CNc1cc(C(=O)N2CCC3(CC2)Nc2ccccc2NC3=O)ccn1` belongs -4.39%; to `O=C(NCCc1ccc(Cl)cc1)c1coc(CN2CCOCC2)c1`, -5.77%.
For the compound `O=C(CCN1CCCC1)N1CC[C@@H](c2ccc3ccccc3c2)[C@H](O)C1`, the cytotoxicity at 70.5 h is -21%.
Take `CCCc1nnc2sc(C3CCS(=O)(=O)CC3)nn12`: the cytotoxicity at 70.5 h is -10.2%.
For the compound `CC(=O)N1CCN(C(=O)c2snnc2C)[C@H]2CS(=O)(=O)C[C@H]21`, the cytotoxicity at 70.5 h is -6.51%.
As to `COc1cc(C)ccc1OCCN1CC[C@@]2(O)CCNC[C@H]2C1`, the cytotoxicity at 70.5 h is -4.21%.
Regarding `CNc1nc2c(c(C(=O)N3CCCC3)n1)CN(C(=O)c1cccs1)CC2`, the cytotoxicity at 70.5 h was 5.33%.
As for `CCC[C@H]1CN(S(C)(=O)=O)C[C@@H]1NC(=O)Cc1ccc(F)cc1C`, the figure is -1.4%; as for `O=c1[nH]nc(CCCN2CCOCC2)n1Cc1cccc(F)c1`, -2.64%.
As for `Cc1nc(CCNC(=O)CC2CCN(C(C)C)CC2)sc1Cl`, the cytotoxicity at 70.5 h stood at 45.7%.
As for `COc1ccc(CN2CCSCC2)c(OC)c1`, the figure is -6.31%; as for `Cc1cccc2cc(C(=O)N3CCSCC3)n(C)c12`, -3.37%.
As for `OCCCc1nncn1-c1cccc(C(F)(F)F)c1`, the figure is -1.23%; as for `O=C(c1ccc(=O)[nH]c1)N1CCCC2(C=Cc3ccccc3O2)CC1` (configuration not stated), -3.22%; as for `COCCCN1CC2(CCN(C(=O)Cc3csc(C)n3)CC2)CC1=O`, -7.77%.
As for `O=C1CC(NCc2ccncc2)CN1CCc1cccc(Cl)c1` (configuration not stated), the figure is -6.56%; as for `Cc1ccc2nc(-c3cnc(N)nc3)cc(C(=O)N(C)C)c2c1`, 1.63%; as for `COCC(=O)N1C[C@H]2CNC[C@@]2(C(=O)NCc2nc(C)cc(C)n2)C1`, -7.28%.
`COc1ccc(-c2cccc(-c3ccn(CC4COCCO4)n3)c2)nn1` (configuration not stated): the cytotoxicity at 70.5 h is -5.24%.
`CCN(Cc1noc(C2CCC2)n1)C(=O)c1cnc2ccccc2c1`: the cytotoxicity at 70.5 h was 13.1%.
On to `CCc1noc(C)c1C(=O)N1CCC2(CCCN(CC(C)(C)C)C2=O)C1` (configuration not stated), for which the cytotoxicity at 70.5 h is -5.92%.
For `CC(=O)N1CC2(CCN(c3nccc4ccccc34)CC2)CC1C(=O)O` (configuration not stated), the cytotoxicity at 70.5 h is -9.28%.
Consider `CC(C)N1CCOC(CC(=O)N2CCCN(Cc3cccs3)CC2)C1` (configuration not stated), for which the cytotoxicity at 70.5 h is -11.6%.
As to `CCN1CCCC(CN(C)c2nccc(-c3ccc(C)nc3C)n2)C1` (configuration not stated), the cytotoxicity at 70.5 h was -1.39%.
Consider `OCc1ccc(CN(CCCn2ccnc2)Cc2cccnc2)o1`, for which the cytotoxicity at 70.5 h was -8.65%.
Regarding `COCCN1CCC(CNC(=O)Nc2ccc(F)c(Cl)c2)C1` (configuration not stated), the cytotoxicity at 70.5 h was found to be 24.8%.
With `CCc1cc(NCC(O)CN2CCCC2)ncn1` (configuration not stated), the cytotoxicity at 70.5 h stood at 21.2%.
For `O=C1O[C@@H]2CN(Cc3cc4ccccc4s3)C[C@@H]2N1Cc1ccccn1`, the cytotoxicity at 70.5 h is -6.44%.
In the case of `c1cc(-c2nccn2CCc2nc3c(s2)CCC3)ccn1`, the cytotoxicity at 70.5 h stood at 12.9%.
With `NCC1Cc2cc(Cl)cc(-c3cncc(C(=O)N4CCCCC4)n3)c2O1` (configuration not stated), the cytotoxicity at 70.5 h was -6.78%.
Consider `Cc1noc(C)c1C(=O)N1CCCC(c2nccn2Cc2cscn2)C1` (configuration not stated), for which the cytotoxicity at 70.5 h was -5.18%.
On to `O=C(NCc1ccc(F)cc1F)C(c1cccnc1)N1CCOCC1` (configuration not stated), for which the cytotoxicity at 70.5 h was -0.235%.
For the compound `c1nc(N2CCCC2)ncc1CN1CCCC(CN2CCCCC2)C1` (configuration not stated), the cytotoxicity at 70.5 h worked out at 24.4%.
As for `CC(C)[C@H]1CN(c2ccncc2)C[C@@H]1NS(=O)(=O)N(C)C`, the cytotoxicity at 70.5 h is -4.27%.
In the case of `Cc1cc(N[C@@H](CO)c2ccccc2)n2nc(C)c(C)c2n1`, the cytotoxicity at 70.5 h is -2.95%.
On to `CCCN(Cc1nccn1C)C(=O)C(CC)Nc1cccc(OC)c1` (configuration not stated), for which the cytotoxicity at 70.5 h was -3.17%.
For the compound `Cc1nc(CN2CCCC23CCN(c2nc4ccccc4s2)CC3)co1`, the cytotoxicity at 70.5 h was -12.9%.
Turning to `CC(=O)N1CCN(Cc2cccc3c2sc2ccccc23)CC(O)C1` (configuration not stated), the cytotoxicity at 70.5 h is -5.85%.
As for `CSc1ncc(CNC(C)c2cnn(-c3ccc(F)cc3F)c2C)cn1` (configuration not stated), the figure is -2.86%; as for `CN1CCn2nc(-c3nc4ccccc4n3C)cc2C1`, 32.2%.
Take `COCCN(C)C(C(=O)O)c1cc(Cl)ccc1OC` (configuration not stated): the cytotoxicity at 70.5 h worked out at 7.55%.
As for `O=C(c1cn(CC(=O)N2CCCC2)c2ccccc12)C1CC1`, the cytotoxicity at 70.5 h was -2.27%.
Turning to `CCc1cc(N(C)Cc2nonc2C)nc(N(C)C)n1`, the cytotoxicity at 70.5 h stood at 7.36%.
`Cc1nc(CNCc2ccc(OC34CCCN(CC3)C4)cc2)n[nH]1` (configuration not stated): the cytotoxicity at 70.5 h is -5.4%.
Turning to `CN(Cc1cnc(N)nc1)CC1CCCN(CCc2ccc(Cl)cc2)C1` (configuration not stated), the cytotoxicity at 70.5 h came to 8.66%.
Regarding `CC[C@@H](CO)NC(=O)c1cc(COc2ccc(OC)cc2Cl)[nH]n1`, the cytotoxicity at 70.5 h was -3.92%.
Turning to `NC(=O)c1ccccc1-n1cc(-c2cccc(C(=O)O)c2)cn1`, the cytotoxicity at 70.5 h is -9.16%.
On to `CCNc1ccnc(NCc2cn3nc(C)sc3n2)n1`, for which the cytotoxicity at 70.5 h was -15.7%.
As to `Fc1cc(Cl)cnc1N1CCCC(c2nccn2CC2CC2)C1` (configuration not stated), the cytotoxicity at 70.5 h was determined as 22.7%.
As for `COCCN(Cc1sccc1C)C(=O)C1CCN(C(C)C)CC1`, the cytotoxicity at 70.5 h was -2.9%.
As for `Cc1cccc2cc(CN3CCC(N4CCCC4)CC3)c(=O)[nH]c12`, the figure is -6.75%.
As for `c1ccc(-c2nc(CCNC3CCOC4(CCOCC4)C3)no2)cc1` (configuration not stated), the cytotoxicity at 70.5 h was -8.69%.
To `NCCc1nc(N[C@@H](CO)c2ccccc2)c2ccccc2n1` belongs 7.85%.
As for `CN(C)c1ncnc2c1CCN(S(=O)(=O)c1ccccc1C(F)(F)F)C2`, the figure is 1.88%.
As to `CC(C)(C)C(=O)N1CCC(n2cc(C3(O)CCCC3)nn2)CC1`, the cytotoxicity at 70.5 h was -9.39%.

Values taken from ChEMBL document CHEMBL3507680, “University of Dundee, Gates Library screen for HepG2 cell viability”.
